{"source": "patent US20260250318A1", "about": "“COMPOSITIONS AND METHODS FOR CROSSING THE BLOOD BRAIN BARRIER” (VOYAGER THERAPEUTICS, INC., priority 2022, published 2026)", "data": [{"test_system": "brains, heart, liver, muscle, and DRG of the NHPs", "assay": "Maturation of TTM-001 and TTM-002 capsids, NGS enrichment in NHP tissues", "format": "in vivo", "conditions": "NHP DRG; NGS; relative to AAV9 control", "summary_of_the_method": "(§1)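 Variants carry mutations within and flanking the loop IV peptide insert: positions 450–466 were triplet-randomized, while positions 449–466 received low-frequency point mutations. The combined pool went into two NHPs, and each peptide was scored by NGS enrichment ratio against AAV9.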", "units": {"Fold Enrichment relative to AAV9, DRG (NHP)": "fold"}, "values": [{"sequence": "KTINGSGSPHSFTCNQQT", "Fold Enrichment relative to AAV9, DRG (NHP)": 0.000}, {"sequence": "KTINGSGSPHSKAFYIQT", "Fold Enrichment relative to AAV9, DRG (NHP)": 0.000}, {"sequence": "KTINGSGSPHSKKVFQQT", "Fold Enrichment relative to AAV9, DRG (NHP)": 0.000}, {"sequence": "KWLTGSGSPHSKAQNQQT (peptide inserted in AAV capsid)", "Fold Enrichment relative to AAV9, DRG (NHP)": 0.000}, {"sequence": "KTINGSGSPHSKWRLQQT", "Fold Enrichment relative to AAV9, DRG (NHP)": 0.000}, {"sequence": "KTINGRRSPHGKAQNQQT", "Fold Enrichment relative to AAV9, DRG (NHP)": 0.000}, {"sequence": "KTINGSRSPHAWAQNQQT (peptide inserted in AAV capsid)", "Fold Enrichment relative to AAV9, DRG (NHP)": 0.000}, {"sequence": "KTINGSGSPHRWTQNQQT", "Fold Enrichment relative to AAV9, DRG (NHP)": 0.000}, {"sequence": "KTINGSGSPHSKPKRQQT", "Fold Enrichment relative to AAV9, DRG (NHP)": 0.000}]}, {"test_system": "brains, heart, liver, muscle, and DRG of the NHPs", "assay": "Maturation of TTM-001 and TTM-002 capsids, NGS enrichment in NHP tissues", "format": "in vivo", "conditions": "NHP brain; NGS; relative to AAV9 control", "summary_of_the_method": "as §1", "units": {"Fold Enrichment relative to AAV9, Brain (NHP)": "fold"}, "values": [{"sequence": "KTINGSGSPHSFTCNQQT", "Fold Enrichment relative to AAV9, Brain (NHP)": 0.000}, {"sequence": "KTINGSGSPHSKAFYIQT", "Fold Enrichment relative to AAV9, Brain (NHP)": 0.000}, {"sequence": "KTINGSGSPHSKKVFQQT", "Fold Enrichment relative to AAV9, Brain (NHP)": 0.000}, {"sequence": "KWLTGSGSPHSKAQNQQT (peptide inserted in AAV capsid)", "Fold Enrichment relative to AAV9, Brain (NHP)": 0.364}, {"sequence": "KTINGSGSPHSKWRLQQT", "Fold Enrichment relative to AAV9, Brain (NHP)": 0.000}, {"sequence": "KTINGRRSPHGKAQNQQT", "Fold Enrichment relative to AAV9, Brain (NHP)": 0.000}, {"sequence": "KTINGSRSPHAWAQNQQT (peptide inserted in AAV capsid)", "Fold Enrichment relative to AAV9, Brain (NHP)": 0.000}, {"sequence": "KTINGSGSPHRWTQNQQT", "Fold Enrichment relative to AAV9, Brain (NHP)": 0.000}, {"sequence": "KTINGSGSPHSKPKRQQT", "Fold Enrichment relative to AAV9, Brain (NHP)": 0.000}]}, {"test_system": "brains, heart, liver, muscle, and DRG of the NHPs", "assay": "Maturation of TTM-001 and TTM-002 capsids, NGS enrichment in NHP tissues", "format": "in vivo", "conditions": "NHP heart; NGS; relative to AAV9 control", "summary_of_the_method": "as §1", "units": {"Fold Enrichment relative to AAV9, Heart (NHP)": "fold"}, "values": [{"sequence": "KTINGSGSPHSFTCNQQT", "Fold Enrichment relative to AAV9, Heart (NHP)": 0.000}, {"sequence": "KTINGSGSPHSKAFYIQT", "Fold Enrichment relative to AAV9, Heart (NHP)": 0.000}, {"sequence": "KTINGSGSPHSKKVFQQT", "Fold Enrichment relative to AAV9, Heart (NHP)": 0.000}, {"sequence": "KWLTGSGSPHSKAQNQQT (peptide inserted in AAV capsid)", "Fold Enrichment relative to AAV9, Heart (NHP)": 0.000}, {"sequence": "KTINGSGSPHSKWRLQQT", "Fold Enrichment relative to AAV9, Heart (NHP)": 0.000}, {"sequence": "KTINGRRSPHGKAQNQQT", "Fold Enrichment relative to AAV9, Heart (NHP)": 0.000}, {"sequence": "KTINGSRSPHAWAQNQQT (peptide inserted in AAV capsid)", "Fold Enrichment relative to AAV9, Heart (NHP)": 0.000}, {"sequence": "KTINGSGSPHRWTQNQQT", "Fold Enrichment relative to AAV9, Heart (NHP)": 0.000}, {"sequence": "KTINGSGSPHSKPKRQQT", "Fold Enrichment relative to AAV9, Heart (NHP)": 0.000}]}, {"test_system": "brains, heart, liver, muscle, and DRG of the NHPs", "assay": "Maturation of TTM-001 and TTM-002 capsids, NGS enrichment in NHP tissues", "format": "in vivo", "conditions": "NHP liver DNA; NGS; relative to AAV9 control", "summary_of_the_method": "as §1", "units": {"Fold Enrichment relative to AAV9, Liver DNA (NHP)": "fold"}, "values": [{"sequence": "KTINGSGSPHSFTCNQQT", "Fold Enrichment relative to AAV9, Liver DNA (NHP)": 2.155}, {"sequence": "KTINGSGSPHSKAFYIQT", "Fold Enrichment relative to AAV9, Liver DNA (NHP)": 0.239}, {"sequence": "KTINGSGSPHSKKVFQQT", "Fold Enrichment relative to AAV9, Liver DNA (NHP)": 4.480}, {"sequence": "KWLTGSGSPHSKAQNQQT (peptide inserted in AAV capsid)", "Fold Enrichment relative to AAV9, Liver DNA (NHP)": 2.388}, {"sequence": "KTINGSGSPHSKWRLQQT", "Fold Enrichment relative to AAV9, Liver DNA (NHP)": 2.037}, {"sequence": "KTINGRRSPHGKAQNQQT", "Fold Enrichment relative to AAV9, Liver DNA (NHP)": 3.259}, {"sequence": "KTINGSRSPHAWAQNQQT (peptide inserted in AAV capsid)", "Fold Enrichment relative to AAV9, Liver DNA (NHP)": 6.838}, {"sequence": "KTINGSGSPHRWTQNQQT", "Fold Enrichment relative to AAV9, Liver DNA (NHP)": 0.844}, {"sequence": "KTINGSGSPHSKPKRQQT", "Fold Enrichment relative to AAV9, Liver DNA (NHP)": 2.832}]}, {"test_system": "brains, heart, liver, muscle, and DRG of the NHPs", "assay": "Maturation of TTM-001 and TTM-002 capsids, NGS enrichment in NHP tissues", "format": "in vivo", "conditions": "NHP liver RNA; NGS; TTM-001 and TTM-002 matured AAV capsid variants; relative to AAV9 control", "summary_of_the_method": "as §1", "units": {"Fold Enrichment relative to AAV9, Liver RNA (NHP)": "fold"}, "values": [{"sequence": "KTINGSGSPHSFTCNQQT", "Fold Enrichment relative to AAV9, Liver RNA (NHP)": 63.936}, {"sequence": "KTINGSGSPHSKAFYIQT", "Fold Enrichment relative to AAV9, Liver RNA (NHP)": 17.172}, {"sequence": "KTINGSGSPHSKKVFQQT", "Fold Enrichment relative to AAV9, Liver RNA (NHP)": 43.747}, {"sequence": "KWLTGSGSPHSKAQNQQT (peptide inserted in AAV capsid)", "Fold Enrichment relative to AAV9, Liver RNA (NHP)": 26.975}, {"sequence": "KTINGSGSPHSKWRLQQT", "Fold Enrichment relative to AAV9, Liver RNA (NHP)": 68.083}, {"sequence": "KTINGRRSPHGKAQNQQT", "Fold Enrichment relative to AAV9, Liver RNA (NHP)": 37.728}, {"sequence": "KTINGSRSPHAWAQNQQT (peptide inserted in AAV capsid)", "Fold Enrichment relative to AAV9, Liver RNA (NHP)": 31.146}, {"sequence": "KTINGSGSPHRWTQNQQT", "Fold Enrichment relative to AAV9, Liver RNA (NHP)": 12.490}, {"sequence": "KTINGSGSPHSKPKRQQT", "Fold Enrichment relative to AAV9, Liver RNA (NHP)": 52.881}]}, {"test_system": "brains, heart, liver, muscle, and DRG of the NHPs", "assay": "Maturation of TTM-001 and TTM-002 capsids, NGS enrichment in NHP tissues", "format": "in vivo", "conditions": "NHP muscle; NGS; relative to AAV9 control", "summary_of_the_method": "as §1", "units": {"Fold Enrichment relative to AAV9, Muscle (NHP)": "fold"}, "values": [{"sequence": "KTINGSGSPHSFTCNQQT", "Fold Enrichment relative to AAV9, Muscle (NHP)": 271.289}, {"sequence": "KTINGSGSPHSKAFYIQT", "Fold Enrichment relative to AAV9, Muscle (NHP)": 0.000}, {"sequence": "KTINGSGSPHSKKVFQQT", "Fold Enrichment relative to AAV9, Muscle (NHP)": 0.000}, {"sequence": "KWLTGSGSPHSKAQNQQT (peptide inserted in AAV capsid)", "Fold Enrichment relative to AAV9, Muscle (NHP)": 2578.486}, {"sequence": "KTINGSGSPHSKWRLQQT", "Fold Enrichment relative to AAV9, Muscle (NHP)": 0.000}, {"sequence": "KTINGRRSPHGKAQNQQT", "Fold Enrichment relative to AAV9, Muscle (NHP)": 0.000}, {"sequence": "KTINGSRSPHAWAQNQQT (peptide inserted in AAV capsid)", "Fold Enrichment relative to AAV9, Muscle (NHP)": 0.000}, {"sequence": "KTINGSGSPHRWTQNQQT", "Fold Enrichment relative to AAV9, Muscle (NHP)": 0.000}, {"sequence": "KTINGSGSPHSKPKRQQT", "Fold Enrichment relative to AAV9, Muscle (NHP)": 0.000}]}]}
